Data reported in patent publication US5110904A (Abbott Laboratories, priority 1990, dated 1992).
Starred links: 1 amine or outer side, 2 acyl side, 3 side chain; linkers in the order of their positions; H or OH if unused. Non-standard residues stand in square brackets, D forms with d. Residues, ends and D or L forms follow the SMILES beside them. Groups on a side chain read outwards from the residue. *: point of attachment. dAla(4-thiazolyl) = N[C@H](Cc1cscn1)C(=O)O; dPhe(4-Cl) = N[C@H](Cc1ccc(Cl)cc1)C(=O)O; d1Nal = N[C@H](Cc1cccc2ccccc12)C(=O)O; d2Nal = N[C@H](Cc1ccc2ccccc2c1)C(=O)O; Lys(iPr) = CC(C)NCCCC[C@H](N)C(=O)O; NMeY = CN[C@@H](Cc1ccc(O)cc1)C(=O)O; d3Pal = N[C@H](Cc1cccnc1)C(=O)O; NMeL = CN[C@@H](CC(C)C)C(=O)O; Nicotinoyl = O=C(c1cccnc1)*; Morpholide = C1CN(*)CCO1; CO = O=C([*:1])[*:2]; azaGly = NNC(=O)O; Sar = CNCC(=O)O

Assays:
LHRH receptors = target: T1, LHRH receptors (Rattus norvegicus, UniProt P30969); assay: Radioligand receptor binding assay, rat pituitary membranes; details: radioiodinated [D-Leu6-des Gly10]-LHRH ethyl amide 50 pM, 2 hours at 4° C., read-out: Receptor Binding pkI (converted)
T1 sequence (P30969 1-327): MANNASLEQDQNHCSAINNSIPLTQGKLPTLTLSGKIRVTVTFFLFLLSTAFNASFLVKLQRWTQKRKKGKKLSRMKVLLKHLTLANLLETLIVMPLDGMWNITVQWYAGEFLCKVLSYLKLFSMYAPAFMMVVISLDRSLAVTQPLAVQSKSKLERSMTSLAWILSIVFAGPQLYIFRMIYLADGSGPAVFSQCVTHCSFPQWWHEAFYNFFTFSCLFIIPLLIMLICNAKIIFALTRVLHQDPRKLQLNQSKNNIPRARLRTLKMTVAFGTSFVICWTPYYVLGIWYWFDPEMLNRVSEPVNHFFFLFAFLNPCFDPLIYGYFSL
Protocol: The radioligand (50 pM), receptors, and compounds to be tested are coincubated for 2 hours at 4° C. Bound ligand is separated from free ligand via centrifugation and aspiration.

[1] = tested on: LH concentration in the blood; assay: In vivo LH inhibition in male castrate rats; design: species or system rat; details: AUC of log(LHt/LHi) over 24 hours, 30 ug/kg subcutaneous bolus
Protocol: The compound to be tested is administered at 30 μg/kg subcutaneously by bolus injection to male castrate rats and blood samples are collected periodically over 24 hours. The AUC (area under the curve) of the LH supression data as a function of time is calculated using the formula log (LHt /LHi) wherein LHt is the LH concentration in the blood at time t and LHi is the initial baseline value for the concentration of LH in the blood. The AUC values are negative numbers.

Ki (LHRH receptors)	SMILES	AUC (24 hr. after 30 ug/kg) [1]
30.2 pM	CC(=O)N[C@H](Cc1ccc2ccccc2c1)C(=O)N[C@H](Cc1ccc(Cl)cc1)C(=O)N[C@H](Cc1cccnc1)C(=O)N[C@@H](CO)C(=O)N(C)[C@@H](Cc1ccc(O)cc1)C(=O)N[C@H](CCCCNC(=O)c1cccnc1)C(=O)N(C)[C@@H](CC(C)C)C(=O)N[C@@H](CCCCNC(C)C)C(=O)N1CCC[C@H]1C(=O)N[C@H](C)C(N)=O [Ex. 67, N-Ac-D-2-Nal-D-4-Cl-Phe-D-3-Pal-Ser-N-Me-Tyr-D-Lys(N-epsilon-nicotinyl)-N-Me-Leu-Lys(N-epsilon-isopropyl)-Pro-D-AlaNH2] (Ac-[d2Nal][dPhe(4-Cl)][d3Pal]S[NMeY][dK](Nicotinoyl)[NMeL][Lys(iPr)]P[dA]-NH2)	-400
17 pM	CC(=O)N[C@H](Cc1ccc2ccccc2c1)C(=O)N[C@H](Cc1ccc(Cl)cc1)C(=O)N[C@H](Cc1cccnc1)C(=O)N[C@@H](CO)C(=O)N(C)[C@@H](Cc1ccc(O)cc1)C(=O)N[C@H](CCCCNC(=O)N1CCOCC1)C(=O)N[C@@H](CC(C)C)C(=O)N[C@@H](CCCCNC(C)C)C(=O)N1CCC[C@H]1C(=O)N[C@H](C)C(N)=O [Ex. 69] (Ac-[d2Nal][dPhe(4-Cl)][d3Pal]S[NMeY][dK]([CO-Morpholide])L[Lys(iPr)]P[dA]-NH2)	-467

More lines, now with the values behind:

SMILES	Ki (LHRH receptors)	AUC (24 hr. after 30 ug/kg) [1]
CC(=O)N[C@H](Cc1ccc2ccccc2c1)C(=O)N[C@H](Cc1ccc(Cl)cc1)C(=O)N[C@H](Cc1cscn1)C(=O)N[C@@H](CO)C(=O)N(C)[C@@H](Cc1ccc(O)cc1)C(=O)N[C@H](CCCCNC(=O)c1cccnc1)C(=O)N[C@@H](CC(C)C)C(=O)N[C@@H](CCCCNC(C)C)C(=O)N1CCC[C@H]1C(=O)N[C@H](C)C(N)=O [Ex. 43, N-Ac-D-2-Nal-D-4-Cl-Phe-D-4-Thiaz-Ser-N-Me-Tyr-D-Lys-(N-epsilon-nicotinyl)-Leu-Lys(N-epsilon-isopropyl)-Pro-D-AlaNH2] (Ac-[d2Nal][dPhe(4-Cl)][dAla(4-thiazolyl)]S[NMeY][dK](Nicotinoyl)L[Lys(iPr)]P[dA]-NH2)	33.9 pM	-337
CC(=O)N[C@H](Cc1ccc2ccccc2c1)C(=O)N[C@H](Cc1ccc(Cl)cc1)C(=O)N[C@H](Cc1cccnc1)C(=O)N[C@@H](CO)C(=O)N(C)[C@@H](Cc1ccc(O)cc1)C(=O)N[C@H](CCCCNC(=O)c1cccnc1)C(=O)N[C@@H](CC(C)C)C(=O)N[C@@H](CCCCNC(C)C)C(=O)N1CCC[C@H]1C(=O)N(C)CC(N)=O [Ex. 44, N-Ac-D-2-Nal-D-4-Cl-Phe-D-3-Pal-Ser-N-Me-Tyr-D-Lys(N-epsilon-nicotinyl)-Leu-Lys(N-epsilon-isopropyl)-Pro-SarNH2] (Ac-[d2Nal][dPhe(4-Cl)][d3Pal]S[NMeY][dK](Nicotinoyl)L[Lys(iPr)]P[Sar]-NH2)	33.1 pM	-571
CC(=O)N(C)CC(=O)N[C@H](Cc1ccc(Cl)cc1)C(=O)N[C@H](Cc1cccc2ccccc12)C(=O)N[C@@H](CO)C(=O)N(C)[C@@H](Cc1ccc(O)cc1)C(=O)N[C@H](CCCCNC(=O)c1cccnc1)C(=O)N[C@@H](CC(C)C)C(=O)N[C@@H](CCCCNC(C)C)C(=O)N1CCC[C@H]1C(=O)N[C@H](C)C(N)=O [Ex. 63, N-Ac-Sar-D-4-Cl-Phe-D-1-Nal-Ser-N-Me-Tyr-D-Lys(N-epsilon-nicotinyl)-Leu-Lys(N-epsilon-isopropyl)-Pro-D-AlaNH2] (Ac-[Sar][dPhe(4-Cl)][d1Nal]S[NMeY][dK](Nicotinoyl)L[Lys(iPr)]P[dA]-NH2)	44.7 pM	-707
CC(=O)NNC(=O)N[C@H](Cc1ccc(Cl)cc1)C(=O)N[C@H](Cc1cccc2ccccc12)C(=O)N[C@@H](CO)C(=O)N(C)[C@@H](Cc1ccc(O)cc1)C(=O)N[C@H](CCCCNC(=O)c1cccnc1)C(=O)N[C@@H](CC(C)C)C(=O)N[C@@H](CCCCNC(C)C)C(=O)N1CCC[C@H]1C(=O)N[C@H](C)C(N)=O [Ex. 65, N-Ac-alpha-Azagly-D-4-Cl-Phe-D-1-Nal-Ser-N-Me-Tyr-D-Lys(N-epsilon-nicotinyl)-Leu-Lys(N-epsilon-isopropyl)-Pro-D-AlaNH2] (Ac-[azaGly][dPhe(4-Cl)][d1Nal]S[NMeY][dK](Nicotinoyl)L[Lys(iPr)]P[dA]-NH2)	57.5 pM	-1114
